Measured values reported in patent publication US20100210649A1, “PYRIDAZINONES AND FURAN-CONTAINING COMPOUNDS” (Sloan-Kettering Institute for Cancer Research, priority 2006, published 2010).
Like-named read-outs stand apart in the source and are kept apart here.

Key:
Type in all cases: cell-based, human
Conditions in all cases: for inhibition at 10 µM: Homo sapiens
H1650 = assay: Non Small Cell Lung Cancer proliferation assay (Alamar Blue reduction), H1650
Procedure: (§1) These cells have a doubling time of 1-2 days. All cell types are adherent and grow in colonies. The cells should be kept at a density between 50,000 cells/mL -500,000 cells/mL to provide for optimum growth and adequate nutrition. The cell line should be maintained at 37° C. in a humidified atmosphere with 5% CO2 in a sterile cell culture incubator.
(§2) Non Small Cell Lung Cancer Proliferation Assay.
(§3) High Controls for this assay are made by treating Non Small Cell Lung Cancer cells with 5 ul of 10% DMSO. [Final concentration in this assay is 1% DMSO].
(§4) Important Note: All compounds for testing in this assay should be done at the final concentration of 1% DMSO.
(§5) After addition, the cells are placed in cell culture incubator at 37° C. for 48 hours for complete treatment.
(§6) After drug treatment, cytotoxicity is measured by Alamar Blue reduction.
(§7) The cells are incubated for 48 hours at 37° C. to complete the Alamar Blue reduction.
(§8) The final step in the assay is to measure the amount of Alamar Blue reduction. […] The Alamar Blue fluorescence is measured at an excitation of 530 nm and emission of 590 nm.
(§9) For the NSCLC project, the cell based assay was screened against a small molecule library of approximately 200,000 compounds. The compound library is stored in our automated robotic freezer (Biophile) at −20° C. in 100% DMSO. Compound freeze and thaw cycles are kept to a minimum. […] This assay was performed on a fully automated linear track robotic platform (CRS F3 Robot System, Thermo Electron Corp., Ontario, Canada) utilizing several integrated peripherals for plate handling, liquid dispensing, and readout detection. […] The microplates are then placed at 37° C. for 48 hours to complete treatment of cells with compounds. Next, 5 ul of alamar blue was added using a liquid dispenser (Flexprop Precision Dispenser, Perkin Elmer, Mass., USA) and incubated for 48 hours at 37° C. The alamar blue prompt fluorescence was measured on Victor V (Victor^3 V, Perkin Elmer, Mass., USA) and output data files were loaded into ORIS (Oncology Research Informatics System, MSKCC, NY, USA), a screening data acquisition and analysis platform.
(§10) The dose response studies were done with the following standard procedure. First, the cells were counted and dispensed at 250 cells/well into 384-well microplates with compound. The cells were incubated for 48 hours at 37 C to complete treatment, and then alamar blue was added for an additional 48 hours. Finally, alamar blue reduction was measured and the data was loaded into ORIS, our data screening acquisition platform.

H2030 = assay: Non Small Cell Lung Cancer proliferation assay (Alamar Blue reduction), H2030
Procedure: as §1, §2, §3, §4, §5, §6, §7, §8, §9, §10

H3255 = assay: Non Small Cell Lung Cancer proliferation assay (Alamar Blue reduction), H3255
Procedure: as §1, §2, §3, §4, §5, §6, §7, §8, §9, §10

H1975 = assay: Non Small Cell Lung Cancer proliferation assay (Alamar Blue reduction), H1975
Procedure: as §1, §2, §3, §4, §5, §6, §7, §8, §9, §10

[1] = NCI-H1650, primary screening, 10 μM compound in 1% DMSO (v/v), read-out: percentage inhibition H1650
[2] = NCI-H2030, primary screening, 10 μM compound in 1% DMSO (v/v), read-out: percentage inhibition H2030
[3] = NCI-H3255, primary screening, 10 μM compound in 1% DMSO (v/v), read-out: percentage inhibition H3255
[4] = NCI-H1975, primary screening, 10 μM compound in 1% DMSO (v/v), read-out: percentage inhibition H1975
[5] = NCI-H1650, primary screening, H1650, 10 μM compound in 1% DMSO (v/v), read-out: PRIMARY HTS [%] H1650 (percentage inhibition)
[6] = NCI-H2030, primary screening, H2030, 10 μM compound in 1% DMSO (v/v), read-out: PRIMARY HTS [%] H2030 (percentage inhibition)
[7] = NCI-H3255, primary screening, H3255, 10 μM compound in 1% DMSO (v/v), read-out: PRIMARY HTS [%] H3255 (percentage inhibition)
[8] = NCI-H1975, primary screening, H1975, 10 μM compound in 1% DMSO (v/v), read-out: PRIMARY HTS [%] H1975 (percentage inhibition)

| Compound | inhibition at 10 µM (H1650; [1]) [%] | inhibition at 10 µM (H2030; [2]) [%] | inhibition at 10 µM (H3255; [3]) [%] | inhibition at 10 µM (H1975; [4]) [%] | other results |
| --- | --- | --- | --- | --- | --- |
| O=C(Nc1ccc(I)cc1)c1ccc([N+](=O)[O-])o1 [compound 103710] | – | – | – | – | inhibition at 10 µM (H1650; NCI-H1650, read-out: PRIMARY HTS [%] H1650 (percentage inhibition)): 33%; inhibition at 10 µM (H2030; NCI-H2030, read-out: PRIMARY HTS [%] H2030 (percentage inhibition)): -5%; inhibition at 10 µM (H3255; NCI-H3255, read-out: PRIMARY HTS [%] H3255 (percentage inhibition)): 4%; inhibition at 10 µM (H1975; NCI-H1975, read-out: PRIMARY HTS [%] H1975 (percentage inhibition)): 17% |
| CCOC(=O)N(CCOc1cnn(-c2ccccc2)c(=O)c1)C(=O)OCC [compound 199761] | -7 | 6 | 41 | -25 | – |
| O=C(Nc1ccc(N2CCN(Cc3ccccc3)CC2)cc1)c1ccco1 [compound 93911] | – | – | – | – | inhibition at 10 µM (H1650; [5]): -4%; inhibition at 10 µM (H2030; [6]): -3%; inhibition at 10 µM (H3255; [7]): -1%; inhibition at 10 µM (H1975; [8]): -22% |
| CC(C)(C)NC(=O)c1ccc(NC(=O)c2ccco2)cc1 [compound 91753] | – | – | – | – | inhibition at 10 µM (H1650; [5]): -3%; inhibition at 10 µM (H2030; [6]): -5%; inhibition at 10 µM (H3255; [7]): -1%; inhibition at 10 µM (H1975; [8]): -22% |
| CCOc1cnn(-c2ccccc2)c(=O)c1Cl [compound 104217] | -15 | 6 | -1 | -7 | – |
| COc1cnn(-c2ccccc2)c(=O)c1SCc1ccc(Cl)cc1Cl [compound 208701] | -4 | 7 | 7 | -25 | – |
| COc1nn(-c2ccccc2)c(=O)c(Cl)c1Cl [compound 104332] | 51 | 87 | 82 | 99 | – |
| CC(C)Oc1c(S)cnn(-c2ccccc2)c1=O [compound 213495] | 4 | -5 | 8 | -15 | – |
| O=c1ccc(Cl)nn1-c1ccc(Br)cc1 [compound 222922] | -20 | -30 | -7 | 3 | – |
| O=C(Nc1ccc(-c2ccc([N+](=O)[O-])cc2)cc1)c1ccco1 [compound 102031] | – | – | – | – | inhibition at 10 µM (H1650; [5]): -2%; inhibition at 10 µM (H2030; [6]): -1%; inhibition at 10 µM (H3255; [7]): 3%; inhibition at 10 µM (H1975; [8]): -11% |
| NCCOc1cnn(-c2ccccc2Cl)c(=O)c1Cl [compound 200052] | -9 | 12 | -18 | 5 | – |
| COc1ccc(-n2nc(C(=O)c3ccccc3)cc(-c3nc4ccccc4[nH]3)c2=N)cc1 [compound 193067] | -7 | 4 | -35 | 21 | – |
| O=c1c(Cl)c(N2CCCC2)cnn1-c1ccccc1 [compound 103868] | -7 | -4 | -3 | -18 | – |
| Cc1c(Oc2ccccc2)nnn1-c1cnn(-c2ccccc2)c(=O)c1Br [compound 223337] | 13 | -14 | 61 | 5 | – |
| CCOc1c(Cl)cnn(-c2ccccc2)c1=O [compound 104288] | -13 | 66 | 46 | 102 | – |
| CN(C(=O)c1ccc([N+](=O)[O-])o1)c1ccccc1 [compound 104003] | – | – | – | – | inhibition at 10 µM (H1650; [5]): -3%; inhibition at 10 µM (H2030; [6]): 0%; inhibition at 10 µM (H3255; [7]): 5%; inhibition at 10 µM (H1975; [8]): 18% |
| O=C(COc1cnn(-c2ccccc2)c(=O)c1Cl)c1ccccc1 [compound 199759] | 16 | 9 | 66 | 36 | – |

| Compound | inhibition at 10 µM (H1650; [1]) [%] | inhibition at 10 µM (H2030; [2]) [%] | inhibition at 10 µM (H3255; [3]) [%] | inhibition at 10 µM (H1975; [4]) [%] | other results |
| --- | --- | --- | --- | --- | --- |
| O=c1c(Cl)c(Cl)c(O)nn1-c1ccccc1 [compound 103751] | 6 | -4 | 0 | -4 | – |
| O=c1c(Cl)c(Cl)cnn1-c1ccc(Cl)c(C(F)(F)F)c1 [compound 103719] | 45 | 94 | 76 | 102 | – |
| COc1ccc(-n2nc(-n3cnc4ccccc43)c(C)c(C#N)c2=O)cc1 [compound 176963] | 11 | 4 | 17 | -5 | – |
| O=C(c1ccc([N+](=O)[O-])o1)N1CCOCC1 [compound 77953] | – | – | – | – | inhibition at 10 µM (H1650; [5]): 12%; inhibition at 10 µM (H2030; [6]): -6%; inhibition at 10 µM (H3255; [7]): 0%; inhibition at 10 µM (H1975; [8]): -1% |
| CCOC(=O)NCCOc1cnn(-c2ccc(Cl)cc2)c(=O)c1Cl [compound 199764] | -11 | -9 | 2 | -14 | – |
| O=c1c2c(cnn1-c1ccccc1)SCCS2 [compound 195988] | 13 | 7 | -18 | -7 | – |
| Cc1cccnc1NC(=O)c1ccc([N+](=O)[O-])o1 [compound 108321] | – | – | – | – | PRIMARY HTS [%] H1650 (percentage inhibition) (H1650; primary screening, H1650, 10 μM compound in 1% DMSO (v/v)): 38%; PRIMARY HTS [%] H2030 (percentage inhibition) (H2030; primary screening, H2030, 10 μM compound in 1% DMSO (v/v)): 6%; PRIMARY HTS [%] H3255 (percentage inhibition) (H3255; primary screening, H3255, 10 μM compound in 1% DMSO (v/v)): 2%; PRIMARY HTS [%] H1975 (percentage inhibition) (H1975; primary screening, H1975, 10 μM compound in 1% DMSO (v/v)): −7% |
| O=c1c(SCc2ccccc2Cl)c(SCc2ccccc2Cl)cnn1-c1ccccc1 [compound 208695] | -14 | -11 | -2 | -13 | – |
| COc1cnn(-c2ccc(C)cc2)c(=O)c1SCc1ccccc1 [compound 208694] | -21 | 3 | -16 | -29 | – |
| COc1cnn(-c2ccccc2)c(=O)c1S [compound 187118] | 101 | 7 | 108 | 96 | – |
| O=C(Nc1cccc(Cl)c1)c1ccco1 [compound 78107] | – | – | – | – | inhibition at 10 µM (H1650; [5]): 14%; inhibition at 10 µM (H2030; [6]): 4%; inhibition at 10 µM (H3255; [7]): 6%; inhibition at 10 µM (H1975; [8]): -14% |
| Cc1cc(Cl)ccc1NC(=O)CN1CCN(C(=O)c2ccco2)CC1 [compound 83809] | – | – | – | – | inhibition at 10 µM (H1650; [5]): 22%; inhibition at 10 µM (H2030; [6]): 2%; inhibition at 10 µM (H3255; [7]): 2%; inhibition at 10 µM (H1975; [8]): -10% |
| Cc1cc([N+](=O)[O-])ccc1NC(=O)c1ccco1 [compound 79434] | – | – | – | – | inhibition at 10 µM (H1650; [5]): 4%; inhibition at 10 µM (H2030; [6]): 0%; inhibition at 10 µM (H3255; [7]): 4%; inhibition at 10 µM (H1975; [8]): -7% |
| Cc1ccccc1-n1nc(C(=O)c2cccs2)cc(-c2nc3ccccc3[nH]2)c1=N [compound 186018] | 42 | 4 | 35 | -4 | – |
| COc1ccc(-n2nc(C(=O)c3cccs3)cc(-c3nc4ccccc4[nH]3)c2=N)cc1 [compound 186925] | 6 | 1 | -28 | 3 | – |
| CCSc1cnn(-c2ccccc2)c(=O)c1Cl [compound 103997] | -15 | 9 | 2 | 98 | – |
